Calls of active or inactive are those of the source.
Experiments:
H9c2 = assay: cells; assay type: functional, cell-based; conditions: Rattus norvegicus, H9c2, Myocardium;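 note: confirmatory concentration-response retest of ultra-high-throughput screening hits for modulation of myocardial damage; cell death induced by hydrogen peroxide oxidative stress; compound pretreatment for 60 min then peroxide exposure for 2 h; potency is for protecting the cells against peroxide damage rather than for killing them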
[1] = viability of PTEN-deleted HCT116 cells – cell-based, HCT116 PTEN knockout, dose response (AID 1047); assay type: functional;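 note: HCT116 colon tumor cells with PTEN knocked out; cells exposed to compound for 60 hours before readout; potency for loss of cell viability measured by luminescence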
[2] = viability of HCT116 lacking mutant beta-catenin – cell-based, human colon tumor, dose response (AID 1045); assay type: functional;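 note: HCT116 colon tumor cells with beta catenin knocked out; cells exposed to compound for 60 hours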
[3] = Luminescence Cell-Based Dose Confirmation HTS to Identify Activators of 5'UTR Stem-Loop Driven Alpha-Synuclein mRNA Translation in H4 Neuroglioblastoma Cells. [Related pubchem assays: 1829 (Project Summary), 1814 (Primary HTS)]; assay type: functional
[4] = Luminescence Cell-Based Dose Response HTS to Identify Activators of Luciferase Translation or Activity in H4 […] Cells. [Related pubchem assays: 1829 (Project Summary), 1814 (Primary HTS)]; assay type: functional
H4 = assay: Luminescence Cell-Based Dose Response HTS to Identify Activators of 5'UTR Stem-Loop Driven Prion Protein mRNA Translation in H4 Neuroglioblastoma Cells. [Related pubchem assays: 1829 (Project Summary), 1814 (Primary HTS)]; assay type: functional; conditions: Homo sapiens
Protein RecA = target: T1, Protein RecA (Mycobacterium tuberculosis, UniProt P9WHJ3); assay: Fluorescence Cell-Free Homogeneous Dose Retest to Identify Inhibitors of RecA-Intein Splicing Activity. [Related pubchem assays (depositor defined):AID2097, AID2223, AID489010, AID492950]; assay type: functional
T1 sequence (P9WHJ3 whole entry): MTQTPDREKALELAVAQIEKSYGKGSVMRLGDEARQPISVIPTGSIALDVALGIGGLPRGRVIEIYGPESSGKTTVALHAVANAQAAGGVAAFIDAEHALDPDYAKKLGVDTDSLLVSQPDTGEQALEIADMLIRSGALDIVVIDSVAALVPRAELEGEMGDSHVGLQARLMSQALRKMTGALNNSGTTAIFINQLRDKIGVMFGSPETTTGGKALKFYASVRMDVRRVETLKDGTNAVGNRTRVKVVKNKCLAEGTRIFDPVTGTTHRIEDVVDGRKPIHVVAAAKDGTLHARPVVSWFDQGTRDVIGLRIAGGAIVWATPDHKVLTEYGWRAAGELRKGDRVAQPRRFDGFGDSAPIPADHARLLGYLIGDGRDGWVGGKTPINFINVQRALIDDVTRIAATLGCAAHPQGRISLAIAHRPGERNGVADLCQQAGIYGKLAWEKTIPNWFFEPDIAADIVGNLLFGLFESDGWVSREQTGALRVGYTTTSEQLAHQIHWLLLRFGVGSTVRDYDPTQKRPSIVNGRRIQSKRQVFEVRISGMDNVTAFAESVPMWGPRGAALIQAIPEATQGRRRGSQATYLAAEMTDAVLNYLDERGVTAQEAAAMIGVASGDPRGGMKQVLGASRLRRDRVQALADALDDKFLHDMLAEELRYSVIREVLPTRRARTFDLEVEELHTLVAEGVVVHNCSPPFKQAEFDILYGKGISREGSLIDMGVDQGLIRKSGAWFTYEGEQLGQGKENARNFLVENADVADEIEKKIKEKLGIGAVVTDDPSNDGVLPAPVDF

[5] = target: T2, Corticotropin-releasing factor receptor 2/Corticotropin-releasing factor-binding protein (Homo sapiens, UniProt P24387+Q13324); assay: Dose Response confirmation of uHTS hits for small molecule antagonists of the CRF-binding protein and CRF-R2 receptor complex.; assay type: functional; conditions: read-out: IC50_Mean
T2 sequence (Q13324 whole entry): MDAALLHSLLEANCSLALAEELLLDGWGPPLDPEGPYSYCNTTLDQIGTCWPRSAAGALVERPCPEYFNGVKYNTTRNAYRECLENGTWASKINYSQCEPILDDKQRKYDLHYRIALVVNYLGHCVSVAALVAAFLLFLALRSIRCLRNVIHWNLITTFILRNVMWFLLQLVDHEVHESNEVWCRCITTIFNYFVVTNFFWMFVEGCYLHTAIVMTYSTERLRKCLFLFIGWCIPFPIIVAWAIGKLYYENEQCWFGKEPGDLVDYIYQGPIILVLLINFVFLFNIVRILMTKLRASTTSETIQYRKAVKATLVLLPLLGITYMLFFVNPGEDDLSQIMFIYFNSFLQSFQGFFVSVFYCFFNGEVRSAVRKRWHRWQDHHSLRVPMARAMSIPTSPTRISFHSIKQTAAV
T2 sequence (P24387 whole entry): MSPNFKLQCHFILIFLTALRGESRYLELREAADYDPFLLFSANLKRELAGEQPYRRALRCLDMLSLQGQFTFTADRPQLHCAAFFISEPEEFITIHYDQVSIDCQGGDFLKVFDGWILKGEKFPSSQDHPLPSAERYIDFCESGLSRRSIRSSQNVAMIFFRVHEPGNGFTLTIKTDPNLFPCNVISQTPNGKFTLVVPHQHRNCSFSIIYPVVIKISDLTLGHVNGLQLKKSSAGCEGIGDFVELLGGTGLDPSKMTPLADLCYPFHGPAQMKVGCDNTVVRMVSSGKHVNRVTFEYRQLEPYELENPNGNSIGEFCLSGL

[6] = target: T2, Corticotropin-releasing factor receptor 2/Corticotropin-releasing factor-binding protein; assay: activators of CRF receptor 2 with binding protein – uHTS hits, confirmation (AID 602473); assay type: functional; conditions: read-out: EC50_Mean
[7] = Luminescence Cell-Based Dose Retest to Confirm Inhibitors of Cancer Stem Cells. [Related pubchem assays (depositor defined):AID2717, AID2721]; assay type: functional; conditions: Homo sapiens
[8] = target: T3, Replicative DNA helicase DnaB (Mycobacterium tuberculosis, UniProt P9WMR3); assay: DnaB intein splicing inhibitors, dose response, biochemical, cell-free fluorescence (AID 449749); assay type: functional
T3 sequence (P9WMR3 whole entry): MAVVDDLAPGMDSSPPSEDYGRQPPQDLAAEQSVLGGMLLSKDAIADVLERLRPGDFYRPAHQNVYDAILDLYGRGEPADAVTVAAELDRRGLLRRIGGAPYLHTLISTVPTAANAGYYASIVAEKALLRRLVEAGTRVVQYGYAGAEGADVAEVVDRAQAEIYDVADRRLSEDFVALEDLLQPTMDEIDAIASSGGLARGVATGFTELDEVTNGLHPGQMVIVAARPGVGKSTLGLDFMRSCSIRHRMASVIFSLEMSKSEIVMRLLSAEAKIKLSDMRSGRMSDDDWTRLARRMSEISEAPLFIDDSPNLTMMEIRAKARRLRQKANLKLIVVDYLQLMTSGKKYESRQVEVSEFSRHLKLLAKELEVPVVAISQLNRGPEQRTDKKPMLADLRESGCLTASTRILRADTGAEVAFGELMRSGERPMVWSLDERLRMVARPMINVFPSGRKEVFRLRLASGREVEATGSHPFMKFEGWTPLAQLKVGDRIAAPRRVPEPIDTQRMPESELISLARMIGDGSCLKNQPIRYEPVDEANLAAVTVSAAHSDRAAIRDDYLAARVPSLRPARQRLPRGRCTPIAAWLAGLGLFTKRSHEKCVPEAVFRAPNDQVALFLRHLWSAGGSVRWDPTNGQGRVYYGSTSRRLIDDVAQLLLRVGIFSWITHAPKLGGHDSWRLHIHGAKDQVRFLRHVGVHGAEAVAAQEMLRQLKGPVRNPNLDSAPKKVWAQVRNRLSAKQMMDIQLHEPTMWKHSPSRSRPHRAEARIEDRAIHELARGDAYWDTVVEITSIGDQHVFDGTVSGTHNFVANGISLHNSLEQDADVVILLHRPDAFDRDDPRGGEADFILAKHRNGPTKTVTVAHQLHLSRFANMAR

With `O=c1cc(-c2ccc([N+](=O)[O-])cc2)c2ccc(O)cc2o1` the IC50 (H9c2) was > 79 µM (inactive).
For `CC(C)(C)c1nn(-c2ccccc2)c2nc(O)c(CNCc3ccco3)cc12`, the EC50 [1] was 7.45 µM (active), the EC50 [2] was 9.2 µM (active) and the IC50 (H9c2) was > 79 µM (inactive).
In the case of `COc1ccc(/C=C2\SC(=S)N(Cc3cccnc3)C2=O)cc1C`, the EC50 [3] is reported as 38 µM (active), the EC50 [4] is reported as 11.1 µM (active) and the EC50 (H4) is reported as 20.1 µM (active).
With `O=C(COc1cccc(NC(=O)c2cccc([N+](=O)[O-])c2)c1)c1ccc(F)cc1` the IC50 (H9c2) was > 79 µM (inactive).
With `ONc1cccnc1-n1nc(C(F)(F)F)cc1C(F)(F)F` the EC50 (Protein RecA) was > 380 µM (inconclusive).
For `CCCCNc1nc(CC)c2c(c1C#N)CCCC2`, the IC50 [5] was > 47.1 µM (inactive) and the EC50 [6] was > 53 µM (inactive).
In the case of `Cc1ccc(C(=O)COC(=O)CCN2C(=O)C3C4C=CC(C5CC45)C3C2=O)cc1` (stereo unspecified), the IC50 [5] is reported as > 47.1 µM (inactive) and the EC50 [6] is reported as > 53 µM (inactive).
With `COC(=O)c1c(C)[nH]c(C(=O)COc2ccc3ccc(=O)oc3c2)c1C` the IC50 (H9c2) was > 79 µM (inactive).
For `CCOC(=O)c1cccc(NS(=O)(=O)Cc2ccccc2)c1`, the IC50 [5] was > 47.1 µM (inactive) and the EC50 [6] was > 53 µM (inactive).
With `CC1CCCC(C)N1C(=O)COC(=O)c1cccs1` (stereo unspecified) the IC50 [5] was > 47.1 µM (inactive) and the EC50 [6] was > 53 µM (inactive).
In the case of `CC(=O)C12CC(C)=C(C)CC1CC1C3CCC4=CC(=O)CCC4(C)C3CCC12C` (stereo unspecified), the AC50 [7] is reported as 5.78 µM (active), the AC50 [8] is reported as 3.05 µM (active) and the EC50 (Protein RecA) is reported as 289 µM (inconclusive).
In the case of `CC1(NC(=O)CCc2nc(O)c3ccccc3n2)CCS(=O)(=O)C1` (stereo unspecified), the IC50 (H9c2) is reported as > 79 µM (inactive).
In the case of `COC(=O)c1ccc2nc3c(cc2c1)[C@@H]1CCN2C(=O)CCC[C@H](C3)[C@H]12`, the IC50 [5] is reported as > 47.1 µM (inactive) and the EC50 [6] is reported as > 53 µM (inactive).
In the case of `O=C(N/N=C/c1ccccn1)c1cc(C2CC2)nc2ccccc12`, the IC50 (H9c2) is reported as > 79 µM (inactive).
For `CCSc1nnc(N)s1`, the IC50 (H9c2) was > 79 µM (inactive).

— ChEMBL document CHEMBL1201862, “PubChem BioAssay data set” (2004)
